Test results: patent US20110230481A2, “DERIVATIVES OF TETRABROMOBENZIMIDAZOLE, A PROCESS FOR THE PREPARATION THEREOF, A PHARMACEUTICAL COMPOSITION COMPRISING THE SAME, A METHOD OF USING THE SAME, A METHOD FOR MODULATING OR REGULATING SERINE/THREONINE KINASES, AND SERINE/THREONINE KINASES MODULATING AGENT” (SELVITA S.A., priority 2009, published 2011)

How the values were obtained:
Experiment in all cases: KINOMEscan Max
Format in all cases: binding
ABL1-phssophorylated = ABL1-phssophorylated (Homo sapiens, UniProt P00519)
Summary of the method: (§1)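 In this platform each kinase carries a DNA tag and is offered an immobilized ligand aimed at the active site; test compound competes for binding, and the amount of kinase held on the ligand is measured by qPCR.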

AKT2 = AKT2 (Homo sapiens, UniProt P31751)
Summary of the method: as §1

AMPK-alpha1 = molecular target: T1, AMPK-alpha1 (Homo sapiens, UniProt Q13131)
T1 construct: DNA tag (qPCR label); purchased Ambit Kinomescan (contract screening)
Summary of the method: as §1

BMPR1A = molecular target: T2, BMPR1A (Homo sapiens, UniProt P36894)
T2 construct: DNA tag (qPCR label); purchased Ambit Kinomescan (contract screening)
Summary of the method: as §1

BMX = molecular target: T3, BMX (Homo sapiens, UniProt P51813)
T3 construct: DNA tag (qPCR read-out)
Summary of the method: as §1

BRAF(V600E) = BRAF(V600E) (Homo sapiens, UniProt P15056, V600E)
BRAF(V600E), sequence (P15056 whole entry V600E): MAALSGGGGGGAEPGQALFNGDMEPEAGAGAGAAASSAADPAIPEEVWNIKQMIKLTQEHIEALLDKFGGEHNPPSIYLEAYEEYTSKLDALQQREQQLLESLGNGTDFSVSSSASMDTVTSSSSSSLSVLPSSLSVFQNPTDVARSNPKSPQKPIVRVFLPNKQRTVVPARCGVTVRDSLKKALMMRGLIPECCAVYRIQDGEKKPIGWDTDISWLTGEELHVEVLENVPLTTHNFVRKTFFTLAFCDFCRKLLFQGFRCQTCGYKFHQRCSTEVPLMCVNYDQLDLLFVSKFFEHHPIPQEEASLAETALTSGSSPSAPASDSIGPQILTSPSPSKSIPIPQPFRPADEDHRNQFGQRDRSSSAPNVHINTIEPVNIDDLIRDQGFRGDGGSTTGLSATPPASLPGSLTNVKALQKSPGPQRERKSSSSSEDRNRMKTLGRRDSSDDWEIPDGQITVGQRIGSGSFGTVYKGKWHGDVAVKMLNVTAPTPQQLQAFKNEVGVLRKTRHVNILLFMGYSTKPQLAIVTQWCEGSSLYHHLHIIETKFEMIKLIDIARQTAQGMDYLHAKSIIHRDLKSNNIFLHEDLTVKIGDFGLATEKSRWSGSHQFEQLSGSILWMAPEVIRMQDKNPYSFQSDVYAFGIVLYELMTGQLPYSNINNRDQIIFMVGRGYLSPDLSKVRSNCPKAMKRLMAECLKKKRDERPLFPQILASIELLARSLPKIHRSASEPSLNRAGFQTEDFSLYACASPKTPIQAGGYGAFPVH
Summary of the method: as §1

CAMK2B = molecular target: T4, CAMK2B (Homo sapiens, UniProt Q13554)
T4 construct: purchased Ambit Kinomescan (contract screening)
T4 sequence (Q13554 whole entry): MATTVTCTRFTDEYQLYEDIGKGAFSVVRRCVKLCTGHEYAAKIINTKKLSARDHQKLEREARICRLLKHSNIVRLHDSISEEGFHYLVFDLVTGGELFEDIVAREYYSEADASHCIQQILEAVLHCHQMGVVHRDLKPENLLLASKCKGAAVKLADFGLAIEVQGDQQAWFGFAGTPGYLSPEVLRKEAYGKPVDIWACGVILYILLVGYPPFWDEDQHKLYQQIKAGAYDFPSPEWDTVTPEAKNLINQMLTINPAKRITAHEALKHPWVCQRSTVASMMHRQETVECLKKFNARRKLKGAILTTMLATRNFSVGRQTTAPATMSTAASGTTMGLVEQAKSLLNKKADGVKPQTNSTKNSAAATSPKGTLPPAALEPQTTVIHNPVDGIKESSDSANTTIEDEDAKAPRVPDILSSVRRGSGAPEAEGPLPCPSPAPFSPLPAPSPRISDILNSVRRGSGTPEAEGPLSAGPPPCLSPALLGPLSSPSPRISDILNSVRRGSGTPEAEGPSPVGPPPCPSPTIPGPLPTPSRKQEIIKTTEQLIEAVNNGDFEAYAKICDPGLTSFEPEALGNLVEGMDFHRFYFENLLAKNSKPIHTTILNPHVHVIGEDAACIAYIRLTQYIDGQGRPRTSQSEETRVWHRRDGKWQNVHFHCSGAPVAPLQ
Summary of the method: as §1

CLK2 = molecular target: T5, CLK2 (Homo sapiens, UniProt P49760)
T5 construct: DNA tag (qPCR read-out)
Summary of the method: as §1

DYRK1A = molecular target: T6, DYRK1A (Homo sapiens, UniProt Q13627)
T6 construct: DNA tag (qPCR read-out); purchased Ambit Kinomescan
Summary of the method: as §1

EPHA1 = molecular target: T7, EPHA1 (Homo sapiens, UniProt P21709)
T7 construct: purchased Ambit (KINOMEscan Max panel service)
Summary of the method: as §1

EPHA7 = molecular target: T8, EPHA7 (Homo sapiens, UniProt Q15375)
T8 construct: purchased Ambit (KINOMEscan Max panel service)
Summary of the method: as §1

ERK3 = ERK3 (Homo sapiens, UniProt Q16659)
Summary of the method: as §1

GRK1 = GRK1 (Homo sapiens, UniProt Q15835)
GRK1, sequence (Q15835 whole entry): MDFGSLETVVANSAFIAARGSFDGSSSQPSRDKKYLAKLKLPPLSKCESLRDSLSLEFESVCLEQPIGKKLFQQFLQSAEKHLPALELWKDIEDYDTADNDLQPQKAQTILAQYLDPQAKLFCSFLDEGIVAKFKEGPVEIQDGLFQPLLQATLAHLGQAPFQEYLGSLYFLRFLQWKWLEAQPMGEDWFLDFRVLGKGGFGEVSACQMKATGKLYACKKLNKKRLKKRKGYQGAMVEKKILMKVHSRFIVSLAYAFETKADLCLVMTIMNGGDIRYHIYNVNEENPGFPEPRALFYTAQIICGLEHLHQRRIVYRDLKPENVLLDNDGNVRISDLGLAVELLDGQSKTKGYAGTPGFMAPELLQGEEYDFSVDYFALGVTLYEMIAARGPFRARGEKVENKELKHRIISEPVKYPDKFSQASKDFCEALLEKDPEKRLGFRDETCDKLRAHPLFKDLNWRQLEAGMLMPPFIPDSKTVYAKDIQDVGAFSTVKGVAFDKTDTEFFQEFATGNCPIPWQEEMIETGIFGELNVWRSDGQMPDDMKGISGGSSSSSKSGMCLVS
Summary of the method: as §1

[1] = molecular target: T9, JAK3(JH1domain-catalytic) (Homo sapiens, UniProt P52333)
T9 construct: JAK3(JH1domain-catalytic); purchased Ambit Kinomescan (contract panel)
Summary of the method: as §1

LATS1 = molecular target: T10, LATS1 (Homo sapiens, UniProt O95835)
T10 construct: purchased Ambit Kinomescan (contract panel)
Summary of the method: as §1

LYN = molecular target: T11, LYN (Homo sapiens, UniProt P07948)
T11 construct: purchased Ambit Kinomescan (contract panel)
Summary of the method: as §1

MAP3K1 = molecular target: T12, MAP3K1 (Homo sapiens, UniProt Q13233)
T12 construct: purchased Ambit Kinomescan (contract panel)
T12 sequence (Q13233 whole entry): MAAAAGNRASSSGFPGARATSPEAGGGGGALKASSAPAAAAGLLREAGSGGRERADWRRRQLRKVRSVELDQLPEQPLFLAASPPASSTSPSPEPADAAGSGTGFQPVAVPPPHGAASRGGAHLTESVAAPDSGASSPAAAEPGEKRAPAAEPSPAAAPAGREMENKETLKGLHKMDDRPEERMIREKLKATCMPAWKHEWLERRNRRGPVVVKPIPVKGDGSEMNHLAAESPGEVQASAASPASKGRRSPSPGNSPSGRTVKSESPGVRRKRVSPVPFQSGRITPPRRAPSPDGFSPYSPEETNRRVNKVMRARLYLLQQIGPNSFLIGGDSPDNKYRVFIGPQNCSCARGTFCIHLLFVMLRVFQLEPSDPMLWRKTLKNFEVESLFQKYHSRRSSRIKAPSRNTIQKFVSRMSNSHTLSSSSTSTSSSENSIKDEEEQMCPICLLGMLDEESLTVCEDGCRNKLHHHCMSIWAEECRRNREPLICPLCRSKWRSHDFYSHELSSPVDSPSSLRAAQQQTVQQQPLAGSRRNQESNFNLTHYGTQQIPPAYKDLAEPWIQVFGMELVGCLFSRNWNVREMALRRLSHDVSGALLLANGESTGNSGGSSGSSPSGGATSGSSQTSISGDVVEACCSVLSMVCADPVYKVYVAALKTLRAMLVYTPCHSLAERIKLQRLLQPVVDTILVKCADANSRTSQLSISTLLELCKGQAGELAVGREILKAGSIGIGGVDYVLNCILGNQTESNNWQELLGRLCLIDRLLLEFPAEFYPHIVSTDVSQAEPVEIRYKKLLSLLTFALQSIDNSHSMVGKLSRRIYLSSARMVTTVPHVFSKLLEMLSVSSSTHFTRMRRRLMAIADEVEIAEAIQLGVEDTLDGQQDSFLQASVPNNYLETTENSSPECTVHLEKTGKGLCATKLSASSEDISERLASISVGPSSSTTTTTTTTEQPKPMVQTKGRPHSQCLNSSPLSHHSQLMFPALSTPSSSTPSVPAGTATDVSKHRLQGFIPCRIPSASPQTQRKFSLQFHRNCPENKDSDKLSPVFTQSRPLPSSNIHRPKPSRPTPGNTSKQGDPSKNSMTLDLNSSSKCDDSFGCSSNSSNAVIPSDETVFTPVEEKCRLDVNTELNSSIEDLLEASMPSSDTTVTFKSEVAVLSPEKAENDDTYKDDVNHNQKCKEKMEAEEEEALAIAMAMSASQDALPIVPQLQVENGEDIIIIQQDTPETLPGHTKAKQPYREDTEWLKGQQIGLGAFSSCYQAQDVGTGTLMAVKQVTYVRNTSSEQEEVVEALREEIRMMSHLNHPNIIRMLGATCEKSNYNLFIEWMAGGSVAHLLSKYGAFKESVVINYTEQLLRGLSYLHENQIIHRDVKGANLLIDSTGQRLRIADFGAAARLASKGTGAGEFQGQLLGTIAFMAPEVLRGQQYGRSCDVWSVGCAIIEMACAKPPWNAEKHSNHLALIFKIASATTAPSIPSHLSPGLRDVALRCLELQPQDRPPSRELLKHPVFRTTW
Summary of the method: as §1

MAP3K2 = molecular target: T13, MAP3K2 (Homo sapiens, UniProt Q9Y2U5)
T13 construct: purchased Ambit Kinomescan (contract panel)
Summary of the method: as §1

MRCKA = MRCKA (Homo sapiens, UniProt Q5VT25)
Summary of the method: as §1

MYLK4 = molecular target: T14, MYLK4 (Homo sapiens, UniProt Q86YV6)
T14 construct: DNA tag (qPCR read-out); purchased Ambit Kinomescan
Summary of the method: as §1

NEK6 = NEK6 (Homo sapiens, UniProt Q9HC98)
Summary of the method: as §1

PCTK2 = PCTK2 (Homo sapiens, UniProt Q00537)
Summary of the method: as §1

PIK3CA(E545K) = PIK3CA(E545K) (Homo sapiens, UniProt P42336, E545K)
Summary of the method: as §1

PLK4 = molecular target: T15, PLK4 (Homo sapiens, UniProt O00444)
T15 construct: DNA tag (qPCR read-out)
Summary of the method: as §1

PRKCH = molecular target: T16, PRKCH (Homo sapiens, UniProt P24723)
T16 construct: DNA tag (qPCR read-out); purchased Ambit Kinomescan
Summary of the method: as §1

PRKCI = molecular target: T17, PRKCI (Homo sapiens, UniProt P41743)
T17 construct: DNA tag (qPCR read-out)
T17 sequence (P41743 whole entry): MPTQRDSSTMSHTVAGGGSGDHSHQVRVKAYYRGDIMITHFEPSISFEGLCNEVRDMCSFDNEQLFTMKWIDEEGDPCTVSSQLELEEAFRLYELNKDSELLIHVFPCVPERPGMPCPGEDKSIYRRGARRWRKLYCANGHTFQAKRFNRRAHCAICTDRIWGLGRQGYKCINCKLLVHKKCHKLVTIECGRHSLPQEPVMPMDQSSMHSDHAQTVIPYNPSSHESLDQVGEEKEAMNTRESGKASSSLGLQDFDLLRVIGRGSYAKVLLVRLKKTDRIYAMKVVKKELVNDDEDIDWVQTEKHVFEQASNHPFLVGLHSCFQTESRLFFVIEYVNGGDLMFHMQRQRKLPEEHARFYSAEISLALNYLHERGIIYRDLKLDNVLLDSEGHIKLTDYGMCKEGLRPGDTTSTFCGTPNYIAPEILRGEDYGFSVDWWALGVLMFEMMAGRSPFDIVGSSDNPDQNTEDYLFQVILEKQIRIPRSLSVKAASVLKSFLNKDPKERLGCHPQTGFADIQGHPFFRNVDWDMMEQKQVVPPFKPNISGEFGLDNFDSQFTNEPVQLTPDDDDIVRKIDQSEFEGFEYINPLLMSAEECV
Summary of the method: as §1

ROCK1 = molecular target: T18, ROCK1 (Homo sapiens, UniProt Q13464)
T18 construct: DNA tag (qPCR read-out)
Summary of the method: as §1

ROCK2 = molecular target: T19, ROCK2 (Homo sapiens, UniProt O75116)
T19 construct: purchased Ambit (KINOMEscan Max service)
Summary of the method: as §1

[2] = molecular target: T20, RPS6KA4(Kin.Dom.2-C-terminal) (Homo sapiens, UniProt O75676)
T20 construct: RPS6KA4(Kin.Dom.2-C-terminal); purchased Ambit Kinomescan (contract screening)
T20 sequence (O75676 411-674 limits assumed): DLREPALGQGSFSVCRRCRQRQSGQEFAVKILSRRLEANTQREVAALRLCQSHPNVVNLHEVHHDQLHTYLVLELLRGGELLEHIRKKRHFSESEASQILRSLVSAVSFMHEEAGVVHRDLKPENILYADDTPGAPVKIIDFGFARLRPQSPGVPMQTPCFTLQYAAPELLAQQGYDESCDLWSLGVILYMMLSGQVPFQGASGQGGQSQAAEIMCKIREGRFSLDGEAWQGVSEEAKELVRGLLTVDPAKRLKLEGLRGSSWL
Summary of the method: as §1

[3] = molecular target: T21, RSK1(Kin.Dom.2-C-terminal) (Homo sapiens, UniProt Q15418)
T21 construct: RSK1(Kin.Dom.2-C-terminal); purchased Ambit Kinomescan (contract screening)
Summary of the method: as §1

[4] = molecular target: T22, RSK4(Kin.Dom.1-N-terminal) (Homo sapiens, UniProt Q9UK32); conditions: 1 μM
T22 construct: RSK4(Kin.Dom.1-N-terminal); DNA tag (qPCR read-out)
Summary of the method: as §1

SIK2 = molecular target: T23, SIK2 (Homo sapiens, UniProt Q9H0K1)
T23 construct: DNA tag (qPCR read-out)
Summary of the method: as §1

TGFBR1 = molecular target: T24, TGFBR1 (Homo sapiens, UniProt P36897)
T24 construct: purchased Ambit Kinomescan (contract screening service)
T24 sequence (P36897 34-503): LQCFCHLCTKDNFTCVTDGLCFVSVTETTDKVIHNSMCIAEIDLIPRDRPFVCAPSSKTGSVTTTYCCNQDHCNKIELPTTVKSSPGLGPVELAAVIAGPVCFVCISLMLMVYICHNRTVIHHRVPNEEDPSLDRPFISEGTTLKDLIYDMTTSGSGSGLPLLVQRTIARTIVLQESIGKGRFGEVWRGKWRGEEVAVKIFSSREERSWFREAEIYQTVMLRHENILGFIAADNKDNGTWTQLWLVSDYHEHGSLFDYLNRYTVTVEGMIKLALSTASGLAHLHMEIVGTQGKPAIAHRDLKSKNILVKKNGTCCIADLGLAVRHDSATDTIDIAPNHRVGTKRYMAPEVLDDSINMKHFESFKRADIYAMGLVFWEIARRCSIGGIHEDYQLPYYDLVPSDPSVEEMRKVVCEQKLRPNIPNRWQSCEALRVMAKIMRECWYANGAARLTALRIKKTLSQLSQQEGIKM
Summary of the method: as §1

Compound: NCCCNc1nc2c(Br)c(Br)c(Br)c(Br)c2[nH]1 [Compound 11, N-(3-aminopropyl)-4,5,6,7-tetrabromo-1H-benzo[d]imidazol-2-amine]
- remaining binding at 1 µM (ABL1-phssophorylated): 94%
- remaining binding at 1 µM (AKT2): 99%
- remaining binding at 1 µM (AMPK-alpha1): 100%
- remaining binding at 1 µM (BMPR1A): 100%
- remaining binding at 1 µM (BMX): 88%
- remaining binding at 1 µM (BRAF(V600E)): 96%
- remaining binding at 1 µM (CAMK2B): 97%
- remaining binding at 1 µM (CLK2): 31%
- remaining binding at 1 µM (DYRK1A): 2.6%
- remaining binding at 1 µM (EPHA1): 100%
- remaining binding at 1 µM (EPHA7): 100%
- remaining binding at 1 µM (ERK3): 75%
- remaining binding at 1 µM (GRK1): 96%
- remaining binding at 1 µM [1]: 100%
- remaining binding at 1 µM (LATS1): 100%
- remaining binding at 1 µM (LYN): 100%
- remaining binding at 1 µM (MAP3K1): 100%
- remaining binding at 1 µM (MAP3K2): 100%
- remaining binding at 1 µM (MRCKA): 100%
- remaining binding at 1 µM (MYLK4): 24%
- remaining binding at 1 µM (NEK6): 100%
- remaining binding at 1 µM (PCTK2): 100%
- remaining binding at 1 µM (PIK3CA(E545K)): 92%
- remaining binding at 1 µM (PLK4): 100%
- remaining binding at 1 µM (PRKCH): 23%
- remaining binding at 1 µM (PRKCI): 100%
- remaining binding at 1 µM (ROCK1): 28%
- remaining binding at 1 µM (ROCK2): 71%
- remaining binding at 1 µM [2]: 97%
- remaining binding at 1 µM [3]: 96%
- % binding [4]: 100%
- remaining binding at 1 µM (SIK2): 100%
- remaining binding at 1 µM (TGFBR1): 100%
